Laboratory results taken from ChEMBL document CHEMBL3885881, “DrugMatrix”.

Species on record: Rattus norvegicus
Experiment: DrugMatrix - Regimen: Daily Repeat
Format: toxicity, organism-based, Sprague-Dawley
Design: regimen Daily Repeat, gender Male, age 6-8 weeks
Conditions: in vivo, po, route oral GAVAGE, […]; for ABSOLUTE BASOPHIL / ABSOLUTE EOSINOPHIL / ABSOLUTE LYMPHOCYTE / ABSOLUTE MONOCYTE / ABSOLUTE SEGMENTED NEUTROPHIL / BASOPHIL / EOSINOPHIL / ERYTHROCYTE COUNT / HEMATOCRIT / HEMOGLOBIN / LEUKOCYTE COUNT / LYMPHOCYTE / MEAN CORPUSCULAR HEMOGLOBIN / MEAN CORPUSCULAR HEMOGLOBIN CONCENTRATION / MEAN CORPUSCULAR VOLUME / MONOCYTE / NEUTROPHIL / NUCLEATED RED BLOOD CELLS / PLATELET COUNT: tissue Blood; for ALANINE AMINOTRANSFERASE / ALBUMIN / ALKALINE PHOSPHATASE / ASPARTATE AMINOTRANSFERASE / BLOOD UREA NITROGEN / CARBON DIOXIDE / CHLORIDE / CHOLESTEROL / CREATINE PHOSPHOKINASE / CREATININE / GLUCOSE / LACTATE DEHYDROGENASE / LIPASE / PHOSPHORUS / POTASSIUM / SODIUM / TOTAL BILIRUBIN / TOTAL PROTEIN / URIC ACID: tissue Plasma
[1] = 48.8 mg/kg, 72 h, dose level Low, time 3 day
[2] = 48.8 mg/kg, 120 h, dose level Low, time 5 day
[3] = 488 mg/kg, 72 h, dose level High, time 3 day
[4] = 488 mg/kg, 120 h, dose level High, time 5 day

## C=CCc1ccc2c(c1)OCO2 [SAFROLE]
[1]
  ABSOLUTE BASOPHIL: 0 CELLS/uL
  ABSOLUTE EOSINOPHIL: 0 CELLS/uL
  ABSOLUTE LYMPHOCYTE: 11419.67 CELLS/uL
  ABSOLUTE MONOCYTE: 222 CELLS/uL
  ABSOLUTE SEGMENTED NEUTROPHIL: 1191.67 CELLS/uL
  BASOPHIL: 0%
  EOSINOPHIL: 0%
  ERYTHROCYTE COUNT: 5.33 x10E6/uL
  HEMATOCRIT: 33.63%
  HEMOGLOBIN: 13.47 G/DL
  LEUKOCYTE COUNT: 12.83 x10E3/uL
  LYMPHOCYTE: 89%
  MEAN CORPUSCULAR HEMOGLOBIN: 25.3 pg
  MEAN CORPUSCULAR HEMOGLOBIN CONCENTRATION: 40.03 G/DL
  MEAN CORPUSCULAR VOLUME: 63.03 fL
  MONOCYTE: 1.67%
  NEUTROPHIL: 9.33%
  NUCLEATED RED BLOOD CELLS: 0 /100WBC
  PLATELET COUNT: 1123 x10E3/uL
  ALANINE AMINOTRANSFERASE: 71.67 u/L
  ALBUMIN: 4 G/DL
  ALKALINE PHOSPHATASE: 447.67 u/L
  ASPARTATE AMINOTRANSFERASE: 90.67 u/L
  BLOOD UREA NITROGEN: 13.33 mg/dL
  CARBON DIOXIDE: 26 mmol/L
  CHLORIDE: 101.67 MEQ/L
  CHOLESTEROL: 78.67 mg/dL
  CREATINE PHOSPHOKINASE: 266.33 u/L
  CREATININE: 0.21 mg/dL
  GLUCOSE: 149.33 mg/dL
  LACTATE DEHYDROGENASE: 158.33 u/L
  LIPASE: 11.67 u/L
  PHOSPHORUS: 11.73 mg/dL
  POTASSIUM: 6.6 MEQ/L
  SODIUM: 143.53 MEQ/L
  TOTAL BILIRUBIN: 0.23 mg/dL
  TOTAL PROTEIN: 5.57 G/DL
  URIC ACID: 1.4 mg/dL
[2]
  ABSOLUTE BASOPHIL: 0 CELLS/uL
  ABSOLUTE EOSINOPHIL: 30.67 CELLS/uL
  ABSOLUTE LYMPHOCYTE: 9371 CELLS/uL
  ABSOLUTE MONOCYTE: 61.33 CELLS/uL
  ABSOLUTE SEGMENTED NEUTROPHIL: 1037 CELLS/uL
  BASOPHIL: 0%
  EOSINOPHIL: 0.33%
  ERYTHROCYTE COUNT: 5.63 x10E6/uL
  HEMATOCRIT: 35.6%
  HEMOGLOBIN: 14.13 G/DL
  LEUKOCYTE COUNT: 10.5 x10E3/uL
  LYMPHOCYTE: 89%
  MEAN CORPUSCULAR HEMOGLOBIN: 25.07 pg
  MEAN CORPUSCULAR HEMOGLOBIN CONCENTRATION: 39.67 G/DL
  MEAN CORPUSCULAR VOLUME: 63.27 fL
  MONOCYTE: 0.67%
  NEUTROPHIL: 10%
  NUCLEATED RED BLOOD CELLS: 1 /100WBC
  PLATELET COUNT: 1163.33 x10E3/uL
  ALANINE AMINOTRANSFERASE: 65 u/L
  ALBUMIN: 4.07 G/DL
  ALKALINE PHOSPHATASE: 334.67 u/L
  ASPARTATE AMINOTRANSFERASE: 88.67 u/L
  BLOOD UREA NITROGEN: 12 mg/dL
  CARBON DIOXIDE: 31.33 mmol/L
  CHLORIDE: 102 MEQ/L
  CHOLESTEROL: 59.67 mg/dL
  CREATINE PHOSPHOKINASE: 260.67 u/L
  CREATININE: 0.22 mg/dL
  GLUCOSE: 164.33 mg/dL
  LACTATE DEHYDROGENASE: 263.33 u/L
  LIPASE: 11.67 u/L
  PHOSPHORUS: 10.97 mg/dL
  POTASSIUM: 6.08 MEQ/L
  SODIUM: 144.37 MEQ/L
  TOTAL BILIRUBIN: 0.17 mg/dL
  TOTAL PROTEIN: 5.7 G/DL
  URIC ACID: 1.8 mg/dL
[3]
  ABSOLUTE BASOPHIL: 0 CELLS/uL
  ABSOLUTE EOSINOPHIL: 78 CELLS/uL
  ABSOLUTE LYMPHOCYTE: 16011.33 CELLS/uL
  ABSOLUTE MONOCYTE: 75.33 CELLS/uL
  ABSOLUTE SEGMENTED NEUTROPHIL: 1335.33 CELLS/uL
  BASOPHIL: 0%
  EOSINOPHIL: 0.33%
  ERYTHROCYTE COUNT: 6.08 x10E6/uL
  HEMATOCRIT: 37.6%
  HEMOGLOBIN: 15.17 G/DL
  LEUKOCYTE COUNT: 17.5 x10E3/uL
  LYMPHOCYTE: 90.67%
  MEAN CORPUSCULAR HEMOGLOBIN: 24.93 pg
  MEAN CORPUSCULAR HEMOGLOBIN CONCENTRATION: 40.33 G/DL
  MEAN CORPUSCULAR VOLUME: 61.83 fL
  MONOCYTE: 0.67%
  NEUTROPHIL: 8.33%
  NUCLEATED RED BLOOD CELLS: 0 /100WBC
  PLATELET COUNT: 1291.67 x10E3/uL
  ALANINE AMINOTRANSFERASE: 88.33 u/L
  ALBUMIN: 3.93 G/DL
  ALKALINE PHOSPHATASE: 421 u/L
  ASPARTATE AMINOTRANSFERASE: 112.67 u/L
  BLOOD UREA NITROGEN: 8.33 mg/dL
  CARBON DIOXIDE: 23.33 mmol/L
  CHLORIDE: 105.67 MEQ/L
  CHOLESTEROL: 87.33 mg/dL
  CREATINE PHOSPHOKINASE: 340.33 u/L
  CREATININE: 0.13 mg/dL
  GLUCOSE: 142 mg/dL
  LACTATE DEHYDROGENASE: 539.33 u/L
  LIPASE: 12 u/L
  PHOSPHORUS: 13.57 mg/dL
  POTASSIUM: 6.52 MEQ/L
  SODIUM: 146.57 MEQ/L
  TOTAL BILIRUBIN: 0.2 mg/dL
  TOTAL PROTEIN: 5.33 G/DL
  URIC ACID: 2.37 mg/dL
[4]
  ABSOLUTE BASOPHIL: 0 CELLS/uL
  ABSOLUTE EOSINOPHIL: 0 CELLS/uL
  ABSOLUTE LYMPHOCYTE: 12133.67 CELLS/uL
  ABSOLUTE MONOCYTE: 150 CELLS/uL
  ABSOLUTE SEGMENTED NEUTROPHIL: 1216.33 CELLS/uL
  BASOPHIL: 0%
  EOSINOPHIL: 0%
  ERYTHROCYTE COUNT: 6.25 x10E6/uL
  HEMATOCRIT: 37.83%
  HEMOGLOBIN: 14.97 G/DL
  LEUKOCYTE COUNT: 13.5 x10E3/uL
  LYMPHOCYTE: 89.33%
  MEAN CORPUSCULAR HEMOGLOBIN: 23.97 pg
  MEAN CORPUSCULAR HEMOGLOBIN CONCENTRATION: 39.53 G/DL
  MEAN CORPUSCULAR VOLUME: 60.6 fL
  MONOCYTE: 1%
  NEUTROPHIL: 9.67%
  NUCLEATED RED BLOOD CELLS: 0 /100WBC
  PLATELET COUNT: 1251.67 x10E3/uL
  ALANINE AMINOTRANSFERASE: 106.33 u/L
  ALBUMIN: 3.87 G/DL
  ALKALINE PHOSPHATASE: 337.67 u/L
  ASPARTATE AMINOTRANSFERASE: 130.67 u/L
  BLOOD UREA NITROGEN: 10.33 mg/dL
  CARBON DIOXIDE: 24 mmol/L
  CHLORIDE: 102.33 MEQ/L
  CHOLESTEROL: 116.33 mg/dL
  CREATINE PHOSPHOKINASE: 612.33 u/L
  CREATININE: 0.19 mg/dL
  GLUCOSE: 123.33 mg/dL
  LACTATE DEHYDROGENASE: 662.67 u/L
  LIPASE: 12.67 u/L
  PHOSPHORUS: 11.8 mg/dL
  POTASSIUM: 5.41 MEQ/L
  SODIUM: 142.07 MEQ/L
  TOTAL BILIRUBIN: 0.17 mg/dL
  TOTAL PROTEIN: 5.6 G/DL
  URIC ACID: 1.37 mg/dL
